According to publication PMC12079444, “Antagonist Targeting the Species‐Specific Fatty Acid Dehydrogenase/Isomerase FabX for Anti‐H. pylori Infection” (Advanced Science, 2025):
Converted amounts (≈) assume the structure as drawn. Read-outs that look alike come from different tables or passages of the source.

Columns and labels:
[1] = target: T1, FabX (Helicobacter pylori, UniProt O25465); assay: biochemical; set-up: FabX-FabI enzyme-coupled assay, NADH consumption read-out of FabX inhibition; settings: for inhibition at 10 µM: read-out: Inhibition (%) 10 μM; for inhibition at 1 µM: read-out: Inhibition (%) 1 μM
T1 construct: gene HP_0773; recombinant from pQE2 vector in E. coli BL21(DE3) Rosetta, Ni-NTA, HiTrap-SP, Superdex75; FMN and [4Fe-4S] cofactors
T1 sequence (O25465 1-363): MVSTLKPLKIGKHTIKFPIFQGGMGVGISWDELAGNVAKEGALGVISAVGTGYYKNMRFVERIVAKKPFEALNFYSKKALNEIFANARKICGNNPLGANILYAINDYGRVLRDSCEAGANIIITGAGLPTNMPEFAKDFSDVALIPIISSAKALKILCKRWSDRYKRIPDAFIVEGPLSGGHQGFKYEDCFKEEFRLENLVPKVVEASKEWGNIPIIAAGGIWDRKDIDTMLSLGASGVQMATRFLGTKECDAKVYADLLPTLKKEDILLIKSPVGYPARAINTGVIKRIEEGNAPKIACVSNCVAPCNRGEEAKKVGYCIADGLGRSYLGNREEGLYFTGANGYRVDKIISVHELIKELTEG
Source text: To discover small molecule inhibitors targeting FabX, we performed protein thermal shift assay (PTSA) based high‐throughput screening against an in‐house chemical library of 11000 small molecule compounds, and established a multienzymatic cascade reaction system by incorporating the enoyl acyl carrier protein reductase FabI from H. pylori into the hit validation system, where FabI catalyzes the reduction of FabX catalytic product enoyl‐ACP in the fourth step of the elongation cycle, accompanying the elimination of NADH (Figure 2A,B). […] Subsequently, the inhibitory activities of these derivatives at 10 × 10^−6 and 1 × 10^−6 M were evaluated, and the structure–activity relationship (SAR) was analyzed (Figure S2, Supporting Information). In the first round of SAR, we briefly examined the influence of the substituents’ positions (C3 and C4), the electronic effects, and the polarity in the A moiety. We synthesized compounds 1a‐1l and evaluated their enzymatic activities (Table S1, Supporting Information). […] In particular, 3‐CN (1e) and 3‐COOH (1i) enhanced the inhibitory activity. We speculate that these two groups may act as hydrogen bond acceptors, forming hydrogen bonds with FabX and enhancing the interaction. We then retained the 3‐CN group in the A moiety and optimized the B moiety to investigate the 2,4‐disubstitution by synthesizing 8a‐8c (Figure 3). […] [picture] Figure S1. Schematic diagram of Type-II fatty acid biosynthesis pathway (FAS-II) in Helicobacter pylori. FabX (red sphere) catalyzes the dehydrogenation and isomerization of the saturated acyl group on ACP (the fifth step in the elongation cycle) for cis-double bond introduction and UFA synthesis. The black and blue curves indicate the SFA and UFA synthesis processes, respectively, while the blue dashes indicate the absence of the conventional fabA gene in the genome of H. pylori. [picture] Figure S2. Bioactivity evaluation of FBX-1 derivatives at 10 μM and 1 μM in the FabX-FabI enzyme-coupled assay. [picture] Figure S3. Overexpression of FabX in strain BHKS211. BHKS210 (NSH57/Vec) and BHKS211 (NSH57/fabX) were cultured in BHI broth supplemented with 10% FCS to an OD600 of 0.3 and then harvested. RNA isolation, reverse transcription, and real-time PCR were performed as described in the EXPERIMENTAL METHODS section. The relative levels of fabX expression in BHKS211 compared to the control strain BHKS210 are represented. The data are the averages ± standard deviations from three independent experiments.

[2] = target: T1, FabX; assay: FabX-FabI coupled assay, NADH absorbance […] nm; assay type: biochemical
[3] = target: T1, FabX; assay: biochemical; set-up: FabX inhibition in multienzymatic cascade coupled to FabI, NADH consumption read-out; settings: read-out: % inhibition
Source text: To discover small molecule inhibitors targeting FabX, we performed protein thermal shift assay (PTSA) based high‐throughput screening against an in‐house chemical library of 11000 small molecule compounds, and established a multienzymatic cascade reaction system by incorporating the enoyl acyl carrier protein reductase FabI from H. pylori into the hit validation system, where FabI catalyzes the reduction of FabX catalytic product enoyl‐ACP in the fourth step of the elongation cycle, accompanying the elimination of NADH (Figure 2A,B). […] The subcloning, expression, and purification of FabX, FabI, and ACP from H. pylori, FabK from S. pneumoniae, and FabA from E. coli were described previously.^[ [19] ^] Briefly, fabX, fabI, fabK, and fabA genes were subcloned to pQE2 vector, while the Acp gene was subcloned to pET32a vector, respectively. The proteins were expressed in BL21(DE3) Rosetta cells, purified by using Ni‐NTA affinity column, HiTrap‐SP column, GE HiLoad 16/600 Superdex75 prep grade gel‐filtration column. The peaks from the gel‐filtration column were further pooled, concentrated, and the final concentration of the proteins was quantified by the Bradford reagent purchased from Bio‐Rad.

[4] = system: T2, Helicobacter pylori BHKS 210; assay: microbe, parasite or virus in culture; settings: BHKS210, read-out: MIC
T2 construct: BHKS210 (NSH57/empty vector pTM117) wild-type NSH57 with empty vector
Method: (§1) The sensitivity of H. pylori strains to various compounds was assessed by determining the MIC and evaluating the growth of the strains on the drug‐containing agar media. The MIC was measured using the broth microdilution assay as described previously.^[ [27] ^] Twofold serial dilutions of the test compounds were prepared using BHI broth supplemented with 10% FCS in 96‐well microtiter plates. Diluted H. pylori cultures, adjusted to a final concentration of 5 × 10^5 CFU mL^−1, were then added to each well. The cultures were incubated for 48–72 h in a microaerobic environment at 37 °C. The MIC was determined by visual inspection. H. pylori strains used in this study were cultured on brain heart infusion (BHI) broth (Oxoid, UK) or Columbia blood agar medium (Oxoid, UK) supplemented with 10% fetal calf serum (FCS). The cultures were incubated at 37 °C for 48–72 h under microaerobic environments in a double‐gas CO2 incubator (Binder, Germany). The wild‐type strains G27 and NSH57 used in this study were kindly provided by Prof. Nina R. Salama from the Fred Hutchinson Cancer Research Center (USA). Three clinical H. pylori strains (BYES129, BY924, and JIGC0009) were isolated from biopsy samples from three patients with gastritis or gastric cancer using standard protocols. Strains BHKS551 (NSH57 IR0203::fabA ΔfabX) and BHKS568 (NSH57 IR0203::fabX ΔfabX) were described previously.^[ [19] ^] The following 15 reference strains of different species were also used: Escherichia coli ATCC 25922, Klebsiella pneumoniae ATCC 35657, Pseudomonas aeruginosa PAO1, Salmonella enterica serovar Typhimurium ATCC 14028, Shigella dysenteriae Sd197, Acinetobacter baumannii ATCC 19606, Proteus mirabilis ATCC 29906, Enterobacter cloacae ATCC 13047, Stenotrophomonas maltophilia ATCC 51331, Bacillus subtilis 168, Enterococcus faecium ATCC 19434, Staphylococcus aureus ATCC 25923, Staphylococcus haemolyticus ATCC 29970, Listeria monocytogenes EGDe, and Morganella morganii ATCC 25830. These non‐Helicobacter bacterial strains were cultured as described previously.^[ [25] ^] We evaluated the antibacterial activities of selected compounds (IC 50 < 1 × 10^−6 M) against several H. pylori strains (Table S3∖, Supporting Information), particularly against strains BHKS551 and BHKS211 (the FabX overexpressed strain, hereinafter referred to as FabX^OE) to validate the on‐target effect in vivo. Note that FabX is overproduced 3.32‐fold in strain BHKS211 compared to the control strain BHKS210 carrying the empty vector (Figure S3, Supporting Information). […] This could be due to the fact that the carboxyl group of 8j readily deprotonates and acquires negative charge at physiological pH, which reduces its lipophilicity and prevents it from permeating the bacterial cell membrane. To address this issue, we employed a prodrug strategy and synthesized esters from 8j by attaching it to lipophilic alcohols (8p‐8u) or a lipophilic cation 6‐hydroxyhexyltriphenylphosphonium bromide (8v) (Figure 3). […] Compounds 8p‐8s were synthesized as shown in Scheme 1, while compounds 8t‐8v were synthesized as described in Scheme 3 . 8q was hydrolyzed with NaOH to yield 8j, which was subsequently reacted with various alcohols by Steglich esterification to produce compounds 8t‐8v.

[5] = system: T3, Helicobacter pylori BHKS 568; assay: microbe, parasite or virus in culture; settings: BHKS568, read-out: MIC
T3 construct: BHKS568 (NSH57 IR0203::fabX ΔfabX) native fabX relocated to IR0203
Method: as §1

[6] = system: T4, Helicobacter pylori G27; assay: microbe, parasite or virus in culture; settings: G27, read-out: MIC
T4 construct: G27
Method: as §1

[7] = system: T5, Helicobacter pylori Hp129; assay: microbe, parasite or virus in culture; settings: HP129, read-out: MIC
T5 construct: Hp129
Method: as §1

[8] = target: T1, FabX; assay: FabX-FabI coupled assay, NADH absorbance […] nm; assay type: biochemical; settings: read-out: FabX enzymatic activity / 10 × 10^-6 M [%]

Compound	inhibition at 10 µM [1] [%]	inhibition at 1 µM [1] [%]	IC50 [2] [nM]	also measured
O=S(=O)(Nc1cccc(I)c1)c1cccnc1Nc1ccc(Cl)cc1 [1c, 2-((4-chlorophenyl)amino)-N-(3-iodophenyl)pyridine-3-sulfonamide]	23			
N#Cc1ccc(NS(=O)(=O)c2cccnc2Nc2ccc(Cl)cc2)cc1 [1d, 2-((4-chlorophenyl)amino)-N-(4-cyanophenyl)pyridine-3-sulfonamide]	12			
N#Cc1cccc(NS(=O)(=O)c2cccnc2Nc2ccc(Cl)cc2)c1 [1e]	88	31		
COc1ccc(NS(=O)(=O)c2cccnc2Nc2ccc(Cl)cc2)cc1 [1f]	23			
COc1cccc(NS(=O)(=O)c2cccnc2Nc2ccc(Cl)cc2)c1 [1g]	21			
CCOC(=O)c1cccc(NS(=O)(=O)c2cccnc2Nc2ccc(Cl)cc2)c1 [1h]	35			
O=C(O)c1cccc(NS(=O)(=O)c2cccnc2Nc2ccc(Cl)cc2)c1 [1i]	65	19		
C#Cc1cccc(NS(=O)(=O)c2cccnc2Nc2ccc(Cl)cc2)c1 [1j]	63			
O=S(=O)(Nc1ccc(F)nc1)c1cccnc1Nc1ccc(Cl)cc1 [1k]	12			
O=S(=O)(NCc1ccccc1)c1cccnc1Nc1ccc(Cl)cc1 [1l]	25	12		
N#Cc1cccc(NS(=O)(=O)c2cccnc2Nc2ccc(Cl)cc2Cl)c1 [8c]	100	77	625 ± 82	
O=c1[nH]c(-c2cccc(NS(=O)(=O)c3cccnc3Nc3ccc(Cl)cc3Cl)c2)no1 [8k]			665 ± 85	
O=S(=O)(Nc1cccc(-c2nnn[nH]2)c1)c1cccnc1Nc1ccc(Cl)cc1Cl [8l]			904 ± 177	
O=C1COc2ccc(NS(=O)(=O)c3cccnc3Nc3ccc(Cl)cc3Cl)cc2N1 [8m]			249 ± 38	
O=S(=O)(Nc1cccc(O)c1)c1cccnc1Nc1ccc(Cl)cc1Cl [8n]			945 ± 111	
COC(=O)c1cccc(NS(=O)(=O)c2cccnc2Nc2ccc(Cl)cc2Cl)c1 [8p, FBX-1991]			158 ± 30	inhibition at 1 µM [3]: 83%; inhibition at 10 µM [3]: 98%; MIC [4]: 16 µg/mL (≈ 35.4 µM); MIC [5]: 16 µg/mL (≈ 35.4 µM); MIC [6]: 16 µg/mL (≈ 35.4 µM); MIC [7]: 16 µg/mL (≈ 35.4 µM)
CCOC(=O)c1cccc(NS(=O)(=O)c2cccnc2Nc2ccc(Cl)cc2Cl)c1 [8q]			552 ± 118	inhibition at 1 µM [3]: 60%; inhibition at 10 µM [3]: 100%; MIC [4]: 32 µg/mL (≈ 68.6 µM); MIC [5]: 16 µg/mL (≈ 34.3 µM); MIC [6]: 16 µg/mL (≈ 34.3 µM); MIC [7]: 16 µg/mL (≈ 34.3 µM)
CC(C)OC(=O)c1cccc(NS(=O)(=O)c2cccnc2Nc2ccc(Cl)cc2Cl)c1 [8r]				inhibition at 10 µM [8]: 37%; MIC [4]: 32 µg/mL (≈ 66.6 µM); MIC [5]: 32 µg/mL (≈ 66.6 µM); MIC [6]: 64 µg/mL (≈ 133 µM); MIC [7]: 32 µg/mL (≈ 66.6 µM)
O=C(OCCCCCC[P+](c1ccccc1)(c1ccccc1)c1ccccc1)c1cccc(NS(=O)(=O)c2cccnc2Nc2ccc(Cl)cc2Cl)c1 [8v]				inhibition at 10 µM [8]: 42%; MIC [4]: 16 µg/mL; MIC [5]: 16 µg/mL; MIC [6]: 32 µg/mL
N#Cc1cccc(NS(=O)(=O)c2ccncc2Nc2ccc(Cl)cc2Cl)c1 [11a, N-(3-cyanophenyl)-3-((2,4-dichlorophenyl)amino)pyridine-4-sulfonamide]	100	100		IC50 [1]: 480 ± 61 nM
N#Cc1cccc(NS(=O)(=O)c2ncccc2Nc2ccc(Cl)cc2Cl)c1 [11c, N-(3-cyanophenyl)-3-((2,4-dichlorophenyl)amino)pyridine-2-sulfonamide]	60	17		
N#Cc1cccc(NS(=O)(=O)c2ccccc2Nc2ccc(Cl)cc2Cl)c1 [11d, N-(3-cyanophenyl)-2-((2,4-dichlorophenyl)amino)benzenesulfonamide]	94	60		IC50 [1]: 2380 ± 225 nM
O=S(=O)(Nc1ccc(F)cc1)c1cccnc1Nc1ccc(Cl)cc1 [FBX-1]			9700 ± 1000	
